Test systems include HCC-2998 colon; SW-620 colon; UACC-62 melanoma; NCI-H522 lung; U251 CNS; HCT-15 colon; ACHN renal; SNB-19 CNS; OVCAR-3 ovarian; NCI/ADR-RES ovarian; CAKI-1 renal; NCI-H23 lung; MDA-N; TK-10 renal; T-47D breast; DU-145 prostate; PC-3 prostate; OVCAR-5 ovarian; MDA-MB-231 breast.
Assay in all cases: NCI tumour cell line growth inhibition, 48 h

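Assay format: 96-well plates, 48-hour exposure. At the TGI there is no net growth.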

As to `C=C1[C@H]2O[C@H]2[C@@H](OC(C)=O)[C@@]2(C)[C@@H](OC(C)=O)C[C@@H](OC(=O)CCC)[C@@](C)(O)[C@@H]2[C@@H](OC(C)=O)[C@]2(O)[C@@H](C)C(=O)O[C@H]2[C@H]1Cl`, the TGI with HCC-2998 colon, with SW-620 colon, with UACC-62 melanoma, in the experiment on NCI-H522 lung, in the experiment on U251 CNS and in the experiment on HCT-15 colon was greater than 100 µM throughout. For the same compound, the TGI in the experiment on ACHN renal, in the experiment with SNB-19 CNS, with OVCAR-3 ovarian, in the experiment with NCI/ADR-RES ovarian, in the experiment on CAKI-1 renal and in the experiment on NCI-H23 lung was greater than 100 µM each time. Besides, the TGI in the experiment on MDA-N, in the experiment on TK-10 renal, in the experiment with T-47D breast, in the experiment on DU-145 prostate, in the experiment on PC-3 prostate and in the experiment on OVCAR-5 ovarian was greater than 100 µM in each case. Also, the TGI in the experiment on MDA-MB-231 breast is greater than 100 µM.
Take `c1csc(-c2nccc3c2[nH]c2ccccc23)c1`: the TGI in the experiment on HCC-2998 colon worked out at 39.6 µM; in the experiment on SW-620 colon it was 46.3 µM; in the experiment on UACC-62 melanoma, 62.4 µM; with NCI-H522 lung it was 41.5 µM; in the experiment on U251 CNS, 75.9 µM; in the experiment on HCT-15 colon, 48.1 µM. In addition, the TGI was 73.7 µM with ACHN renal; greater than 100 µM in the experiment on SNB-19 CNS; 49.4 µM in the experiment with OVCAR-3 ovarian; 54.8 µM with NCI/ADR-RES ovarian; 71.5 µM in the experiment on CAKI-1 renal; 38.2 µM with NCI-H23 lung. The TGI is 35.4 µM in the experiment on MDA-N; 48.7 µM with TK-10 renal; 63.2 µM with T-47D breast; 63.9 µM in the experiment with DU-145 prostate; 61.3 µM with PC-3 prostate; 85.5 µM with OVCAR-5 ovarian. This compound yielded a TGI with MDA-MB-231 breast of 48.1 µM.
Consider `N#Cc1cc2c(cc1C#N)/C(=N\c1cccc(N)n1)N=C2Nc1cccc(N)n1`, for which the TGI in the experiment with HCC-2998 colon is 57.5 µM; in the experiment on SW-620 colon it was 60.1 µM; in the experiment with UACC-62 melanoma, 41 µM; with NCI-H522 lung, 22.6 µM; in the experiment with U251 CNS it was greater than 100 µM; in the experiment on HCT-15 colon, 76.5 µM. Moreover, the TGI was 57.3 µM with ACHN renal; greater than 100 µM in the experiment with SNB-19 CNS; greater than 100 µM with OVCAR-3 ovarian; greater than 100 µM with NCI/ADR-RES ovarian; 34.1 µM in the experiment on CAKI-1 renal; 40.1 µM in the experiment with NCI-H23 lung. Moreover, the TGI was 59.6 µM in the experiment on MDA-N; 68.8 µM in the experiment with TK-10 renal; greater than 100 µM in the experiment on T-47D breast; greater than 100 µM in the experiment with DU-145 prostate; greater than 100 µM in the experiment with PC-3 prostate; greater than 100 µM with OVCAR-5 ovarian. This compound gave a TGI in the experiment on MDA-MB-231 breast of 40.9 µM.
In the case of `N#Cc1c(C#N)c(-c2ccccc2)n(Cc2ccccc2)c1N`, the TGI in the experiment with HCC-2998 colon, with SW-620 colon, with UACC-62 melanoma, in the experiment on NCI-H522 lung, with U251 CNS and with HCT-15 colon was greater than 100 µM in each case. The TGI in the experiment with ACHN renal, in the experiment with SNB-19 CNS, in the experiment with OVCAR-3 ovarian, with NCI/ADR-RES ovarian, with CAKI-1 renal and in the experiment on NCI-H23 lung was greater than 100 µM in each case. The TGI with MDA-N, in the experiment with TK-10 renal, with T-47D breast, with DU-145 prostate, in the experiment with PC-3 prostate and in the experiment with OVCAR-5 ovarian was greater than 100 µM throughout. The TGI in the experiment with MDA-MB-231 breast is 86.4 µM.
Take `O=C(O)CCO/N=C1/C(c2c(O)[nH]c3ccccc23)=Nc2ccccc21`: the TGI in the experiment on HCC-2998 colon is 35.7 µM; in the experiment on SW-620 colon it was greater than 100 µM; in the experiment on UACC-62 melanoma it was 46.9 µM; in the experiment on NCI-H522 lung, greater than 100 µM; with U251 CNS, greater than 100 µM; with HCT-15 colon, 42.3 µM. Also, the TGI with ACHN renal was greater than 100 µM; with SNB-19 CNS it was greater than 100 µM; in the experiment with OVCAR-3 ovarian, 43.9 µM; in the experiment with NCI/ADR-RES ovarian, greater than 100 µM; with CAKI-1 renal it was 63.8 µM; in the experiment on NCI-H23 lung it was 66.5 µM. The TGI with MDA-N is greater than 100 µM; in the experiment with TK-10 renal, greater than 100 µM; in the experiment with T-47D breast, 72.6 µM; with DU-145 prostate, 75.1 µM; in the experiment on PC-3 prostate, greater than 100 µM; in the experiment on OVCAR-5 ovarian, greater than 100 µM. Moreover, the TGI in the experiment with MDA-MB-231 breast is greater than 100 µM.
In the case of `Cc1c(O)c(OC2OC(CO)C(O)C(O)C2O)cc2c1C=C[C@@H]1[C@@]2(C)C(=O)C[C@]2(C)[C@@H]([C@@](C)(O)C(O)/C=C/C(C)(C)O)[C@H](O)C[C@@]12C` (some centres undefined), the TGI in the experiment on HCC-2998 colon, with SW-620 colon, with UACC-62 melanoma, in the experiment with NCI-H522 lung, in the experiment on U251 CNS and in the experiment on HCT-15 colon was greater than 100 µM each time. Further, the TGI with ACHN renal, in the experiment on SNB-19 CNS, with OVCAR-3 ovarian, in the experiment on NCI/ADR-RES ovarian, in the experiment on CAKI-1 renal and in the experiment with NCI-H23 lung was greater than 100 µM each time. The TGI in the experiment with MDA-N, in the experiment with TK-10 renal, in the experiment with T-47D breast, in the experiment on DU-145 prostate, in the experiment with PC-3 prostate and in the experiment on OVCAR-5 ovarian was greater than 100 µM in each case. Further, the TGI with MDA-MB-231 breast is greater than 100 µM.
In the case of `O=C1C[C@H](COCc2ccccc2)NC(=O)C[C@H](COCc2ccccc2)NC(=O)C[C@H](COCc2ccccc2)N1`, the TGI in the experiment with HCC-2998 colon, in the experiment with SW-620 colon, in the experiment on UACC-62 melanoma, with NCI-H522 lung, in the experiment with U251 CNS and in the experiment on HCT-15 colon was greater than 100 µM each time. In addition, the TGI with ACHN renal, with SNB-19 CNS, in the experiment with OVCAR-3 ovarian, with NCI/ADR-RES ovarian, with CAKI-1 renal and in the experiment on NCI-H23 lung was greater than 100 µM each time. The TGI in the experiment with MDA-N is greater than 100 µM; in the experiment on TK-10 renal it was 41.1 µM; with T-47D breast, greater than 100 µM; in the experiment on DU-145 prostate, greater than 100 µM; in the experiment with PC-3 prostate, greater than 100 µM; in the experiment with OVCAR-5 ovarian, greater than 100 µM. Further, in the experiment on MDA-MB-231 breast, the TGI is 85.2 µM.
For the compound `O=[N+]([O-])C1=Cc2cc(Cl)ccc2OC1c1cccc2ccccc12` (centres undefined), the TGI was 2.25 µM in the experiment on HCC-2998 colon; 0.459 µM in the experiment on SW-620 colon; 4.97 µM in the experiment on UACC-62 melanoma; 2.9 µM with NCI-H522 lung; 3.17 µM in the experiment with U251 CNS; 2.95 µM in the experiment on HCT-15 colon. Also, the TGI is 2.99 µM in the experiment on ACHN renal; 3.04 µM with SNB-19 CNS; 2.95 µM in the experiment with OVCAR-3 ovarian; greater than 22.3 µM with NCI/ADR-RES ovarian; 1.22 µM with CAKI-1 renal; 5.46 µM in the experiment with NCI-H23 lung. Besides, the TGI with MDA-N worked out at 3.41 µM; with TK-10 renal, 2.55 µM; in the experiment with T-47D breast, 2.81 µM; in the experiment with DU-145 prostate it was 4.7 µM; with PC-3 prostate, 2.23 µM; in the experiment with OVCAR-5 ovarian, 4.05 µM. This compound also yielded a TGI with MDA-MB-231 breast of 6.23 µM.
Take `COC(=O)[C@H](Cc1ccccc1)NC(=O)N(CCC#N)CCCCN(CCC#N)C(=O)N[C@@H](Cc1ccccc1)C(=O)OC`: the TGI with HCC-2998 colon, in the experiment with SW-620 colon, in the experiment on UACC-62 melanoma, with NCI-H522 lung, in the experiment with U251 CNS and with HCT-15 colon was greater than 100 µM throughout. The TGI with ACHN renal, in the experiment on SNB-19 CNS, in the experiment with OVCAR-3 ovarian, with NCI/ADR-RES ovarian, with CAKI-1 renal and in the experiment with NCI-H23 lung was greater than 100 µM each time. The TGI with MDA-N, with TK-10 renal, with T-47D breast, with DU-145 prostate, in the experiment with PC-3 prostate and in the experiment on OVCAR-5 ovarian was greater than 100 µM each time. This compound also registered a TGI in the experiment on MDA-MB-231 breast greater than 100 µM.
Turning to `Cn1c(=O)c2sc3c4sc5c(=O)n(C)c6ccccc6c5c4sc3c2c2ccccc21`, the TGI in the experiment on HCC-2998 colon, in the experiment on SW-620 colon, in the experiment with UACC-62 melanoma, with NCI-H522 lung, with U251 CNS and with HCT-15 colon was greater than 100 µM in each case. Moreover, the TGI in the experiment on ACHN renal, with SNB-19 CNS, in the experiment with OVCAR-3 ovarian, in the experiment with NCI/ADR-RES ovarian, in the experiment with CAKI-1 renal and in the experiment on NCI-H23 lung was greater than 100 µM in each case. The TGI in the experiment with MDA-N, with TK-10 renal, in the experiment with T-47D breast, with DU-145 prostate, with PC-3 prostate and in the experiment with OVCAR-5 ovarian was greater than 100 µM in each case. The compound also yielded a TGI in the experiment on MDA-MB-231 breast greater than 100 µM.
Regarding `CC(C)(C)OC(=O)N1CC(CCl)c2ccc(O)cc21` (centres undefined), the TGI in the experiment with HCC-2998 colon amounted to 2.02 µM; with SW-620 colon, 11 µM; with UACC-62 melanoma, 4.56 µM; with NCI-H522 lung it was 2.01 µM; with U251 CNS it was 12.1 µM; with HCT-15 colon, 10 µM. Moreover, the TGI in the experiment with ACHN renal stood at 3.38 µM; in the experiment with SNB-19 CNS, 10.6 µM; with OVCAR-3 ovarian, 5.83 µM; with NCI/ADR-RES ovarian it was 3.68 µM; with CAKI-1 renal, 11.6 µM; with NCI-H23 lung, 2.32 µM. The TGI in the experiment with MDA-N was 3.67 µM; in the experiment with TK-10 renal it was 7.47 µM; in the experiment on T-47D breast, 12.7 µM; with DU-145 prostate, 5.73 µM; with PC-3 prostate, 5.51 µM; in the experiment on OVCAR-5 ovarian, 10.2 µM. The compound also returned a TGI in the experiment with MDA-MB-231 breast of 11.4 µM.

Values taken from PubChem BioAssay (NCI).
